Data taken from patent US20200069677A1, “MARKERS FOR PERSONALIZED CANCER TREATMENT WITH LSD1 INHIBITORS” (Constellation Pharmaceuticals, Inc., priority 2016, published 2020).

Experiments:
KDM1A/CoREST complex [1] = molecular target: T1, KDM1A/CoREST complex (Homo sapiens, UniProt O60341); assay: Anti-KDM1A immunoprecipitation and Western blot in HEL cells; type: cell-based; design: endogenous in cells; settings: overnight at 1 μM
Method: For immunoprecipitation, 3 μg of anti-KDM1A antibody (Bethyl Labs, Montgomery, Tex.) or rabbit IgG (Cell Signaling, Danvers, Mass.) were added to 0.5 mg of reconstituted whole cell lysate and placed on a rotator at 4° C. overnight. To isolate the immune complexes, 50 μL of pre-washed Protein G magnetic beads (Dynabeads, Invitrogen) equilibrated in A+C buffer (1:1) were added and the samples were rotated for 4° C. for an additional 2 hours. Beads were captured using a magnetic stand (DynaMag, Invitrogen) and washed 3 times with buffer A+C. The beads were re-suspended in 25 μl 2×SDS loading buffer and resolved on 4-12% SDS-PAGE gels. Co-precipitated proteins were detected by western blotting using the indicated primary antibodies. […] Here, HEL cells were treated with the KDM1A inhibitor RN-1 overnight at 1 μM concentration. Cell lysates were prepared and an immunoprecipitation was carried out using an anti-KDM1A antibody and rabbit IgG as a control. SDS-PAGE and Western blotting was performed on the input material and immunoprecipitated material. Blot was probed with an anti-GFI1B, anti-KDM1A, and anti-vinculin antibodies. Bound antibodies were detected with goat anti-rabbit IgG antibody and goat anti-mouse IgG, conjugated with DyLight 800 AND DyLight 680, respectively.

KDM1A/CoREST complex [2] = molecular target: T1, KDM1A/CoREST complex; assay: Anti-KDM1A immunoprecipitation and Western blot in SET2 cells; type: cell-based; design: endogenous in cells; host or cells: SET2 cells
Method: […] Cells were harvested, washed twice with cold PBS and resuspended in 5 volumes of Buffer A (10 mM Tris-HCL (pH 8.0), 1.5 mM MgCl2, 10 mM KCl, 0.5 mM DTT, supplemented with protease inhibitors). After 15 minutes on ice, cells were spun down at 1000×g for 15 minutes and the supernatant was removed as the cytosolic fraction. Pellets were resuspended in Buffer C (20 mM Tris-HCl, (pH 7.9), 25% glycerol, 0.42 M NaCl, 1.5 mM MgCl2, 0.2 mM EDTA, 0.5 mM DTT and protease inhibitors) and sonicated briefly (3 seconds, 40% output). After incubating on ice for 30 minutes, cells were spun at 20,000×g for 20 minutes to pellet the insoluble material. The supernatant was removed (soluble nuclear fraction) and combined with the cytosolic fraction to reconstitute a whole cell lysate with a final NaCl concentration of <200 mM. […] Co-precipitated proteins were detected by western blotting using the indicated primary antibodies. […] Bound antibodies were detected with goat anti-rabbit IgG antibody and goat anti-mouse IgG, conjugated with DyLight 800 AND DyLight 680, respectively. […]

SET2 xenografts = assay: In vivo efficacy on SET2 tumor xenografts; settings: Nude mice; 1.5, 5 and 15 mg/kg p.o. QD; 14 days of dosing
Method: FIG. 12 illustrates the in vivo efficacy of GSK2879552 on SET2 xenografts. […] Tumor-bearing animals were treated with 3 different dose levels of the KDM1A inhibitor: 1.5 mg/kg, 5 mg/kg, and 15 mg/kg administered orally (p.o.) on a daily schedule (QD). […] Top right panel indicates body weight changes determined in the treated mice.

CoREST retention in the KDM1A complex (co-immunoprecipitation) (KDM1A/CoREST complex [2]; SET-2 cells, overnight at 1 μM) | SMILES | GFI1B association with the KDM1A/CoREST complex (co-immunoprecipitation) (KDM1A/CoREST complex [1]) | GFI1B association with the KDM1A/CoREST complex (co-immunoprecipitation) (KDM1A/CoREST complex [2]; SET2 cells, 1 μM RN-1 for 24 hours, vs DMSO) | Growth of SET-2 tumor xenografts (tumor size) (SET2 xenografts)
CoREST is retained in the KDM1A complex | CN1CCN(C(=O)CN[C@@H]2CC2c2ccc(OCc3ccccc3)cc2)CC1 (stereo partly shown) [RN-1] | displacement of GFI1B from the KDM1A/CoREST complex | displacement of GFI1B from the KDM1A/CoREST complex | –
– | O=C(O)c1ccc(CN2CCC(CN[C@@H]3C[C@H]3c3ccccc3)CC2)cc1 [GSK2879552] | – | – | reduced the growth of SET-2 tumor xenografts
